Patent publication US7754880B2, “Uracils having a herbicidal activity” (Isagro Ricerca S.r.l., priority 2002, dated 2010)

Tests used:
Amaranthus retroflexus [1] = assay: Herbicidal activity in pre-emergence; format: in vivo; conditions: dosage of 15 g/ha, fifteen days after the treatment, damage vs non-treated plants
Procedure: (§1) Determination of the Herbicidal Activity and Phytotoxicity in Pre-Emergence The herbicidal activity of the compounds of the invention in pre-emergence was evaluated according to the following operative procedures. The vegetable species of interest (weeds or crops) were sown in pots with an upper diameter of 10 cm, a height of 10 cm and containing sandy soil. 10 pots were used for each vegetable species. Water was added to each pot in such a quantity as to germinate the seeds. The pots were divided into two groups, each containing 5 pots for each weed or crop. After one day from the sowing, the first set of pots was treated with a hydro-acetonic dispersion containing acetone at 10% in volume, the product under evaluation at the desired concentration and Tween 20 at 0.5%. The second set was treated with a hydro-acetonic solution only, containing acetone at 10% in volume and Tween 20 at 0.5%, and was used as comparison (blank). All pots were kept under observation in a conditioned environment under the following conditions: temperature: 24° C.; relative humidity: 60%; photoperiod: 16 ore; light intensity: 10000 lux. The pots were uniformly watered in order to ensure a sufficient humidity degree for a good development of the plants.

Ipomea purpurea [2] = assay: Herbicidal activity in pre-emergence; format: in vivo; conditions: dosage of 15 g/ha, fifteen days after the treatment, damage vs non-treated plants
Procedure: as §1

Sida spinosa [3] = assay: Herbicidal activity in pre-emergence; format: in vivo; conditions: dosage of 15 g/ha, fifteen days after the treatment, damage vs non-treated plants
Procedure: as §1

Chenopodium album [4] = assay: Herbicidal activity in pre-emergence; format: in vivo; conditions: dosage of 15 g/ha, fifteen days after the treatment, damage vs non-treated plants
Procedure: as §1

Abutilon theofrasti [5] = assay: Herbicidal activity in pre-emergence; format: in vivo; conditions: dosage of 15 g/ha, fifteen days after the treatment, damage vs non-treated plants
Procedure: as §1

Solanum nigrum [6] = assay: Herbicidal activity in pre-emergence; format: in vivo; conditions: dosage of 15 g/ha, fifteen days after the treatment, damage vs non-treated plants
Procedure: as §1

Galium aparine = assay: Herbicidal activity in pre-emergence; format: in vivo; conditions: dosage of 15 g/ha, fifteen days after the treatment, damage vs non-treated plants
Procedure: as §1

Portulaca oleracea [7] = assay: Herbicidal activity in pre-emergence; format: in vivo; conditions: dosage of 15 g/ha, fifteen days after the treatment, damage vs non-treated plants
Procedure: as §1

Amaranthus retroflexus [8] = assay: Herbicidal activity in post-emergence; format: in vivo; conditions: dosage of 15 g/ha, fifteen days after the treatment, damage vs non-treated plants
Procedure: (§2) Determination of the Herbicidal Activity and Phytotoxicity in Post-Emergence The herbicidal activity of the compounds of the invention in post-emergence was evaluated according to the following operative procedures. The vegetable species of interest (weeds or crops) were sown in pots with an upper diameter of 10 cm, a height of 10 cm and containing sandy soil. 10 pots were used for each vegetable species. Water was added to each pot in such a quantity as to germinate the seeds. The pots were divided into two groups, each containing 5 pots for each weed or crop. Fifteen days after sowing (ten, in the case of wheat), when the weeds and crops, according to the species, were 10-15 cm high, the first set of pots was treated with a hydro-acetonic dispersion containing acetone at 10% in volume, the product under evaluation at the desired concentration and Tween 20 at 0.5%. The second set was treated with a hydro-acetonic solution only, containing acetone at 10% in volume and Tween 20 at 0.5%, and was used as comparison (blank). All pots were kept under observation in a conditioned environment under the following conditions: temperature: 24° C.; relative humidity: 60%; photo-period: 16 ore; light intensity: 10000 lux. The pots were uniformly watered every other day so as to ensure a humidity degree sufficient for a good development of the plants.

Ipomea purpurea [9] = assay: Herbicidal activity in post-emergence; format: in vivo; conditions: dosage of 15 g/ha, fifteen days after the treatment, damage vs non-treated plants
Procedure: as §2

Sida spinosa [10] = assay: Herbicidal activity in post-emergence; format: in vivo; conditions: dosage of 15 g/ha, fifteen days after the treatment, damage vs non-treated plants
Procedure: as §2

Chenopodium album [11] = assay: Herbicidal activity in post-emergence; format: in vivo; conditions: dosage of 15 g/ha, fifteen days after the treatment, damage vs non-treated plants
Procedure: as §2

Abutilon theofrasti [12] = assay: Herbicidal activity in post-emergence; format: in vivo; conditions: dosage of 15 g/ha, fifteen days after the treatment, damage vs non-treated plants
Procedure: as §2

Solanum nigrum [13] = assay: Herbicidal activity in post-emergence; format: in vivo; conditions: dosage of 15 g/ha, fifteen days after the treatment, damage vs non-treated plants
Procedure: as §2

Portulaca oleracea [14] = assay: Herbicidal activity in post-emergence; format: in vivo; conditions: dosage of 15 g/ha, fifteen days after the treatment, damage vs non-treated plants
Procedure: as §2

## Cn1c(C(F)(F)F)cc(=O)n(-c2cc(OCc3nnc(C(C)(C)C)o3)c(Cl)cc2F)c1=O [Compound No 6, 3-{5-[(5-tert-butyl-1,3,4-oxadiazol-2-yl)methoxy]-4-chloro-2-fluorophenyl}-1-methyl-6-(trifluoromethyl)-2,4(1H,3H)-pyrimidinedione]
Amaranthus retroflexus [1]
  Herbicidal activity in pre-emergence, AR: 4 (4=71-90% damage)
Ipomea purpurea [2]
  Herbicidal activity in pre-emergence, IP: 4 (4=71-90% damage)
Sida spinosa [3]
  Herbicidal activity in pre-emergence, SS: 5 (5=91% damage—death of the plant)
Chenopodium album [4]
  Herbicidal activity in pre-emergence, CA: 5 (5=91% damage—death of the plant)
Abutilon theofrasti [5]
  Herbicidal activity in pre-emergence, AT: 5 (5=91% damage—death of the plant)
Solanum nigrum [6]
  Herbicidal activity in pre-emergence, SN: 5 (5=91% damage—death of the plant)
Galium aparine
  Herbicidal activity in pre-emergence, GA: 5 (5=91% damage—death of the plant)
Portulaca oleracea [7]
  Herbicidal activity in pre-emergence, PO: 5 (5=91% damage—death of the plant)
Amaranthus retroflexus [8]
  Herbicidal activity in post-emergence, AR: 3 (3=51-70% damage)
Ipomea purpurea [9]
  Herbicidal activity in post-emergence, IP: 5 (5=91% damage—death of the plant)
Sida spinosa [10]
  Herbicidal activity in post-emergence, SS: 4 (4=71-90% damage)
Chenopodium album [11]
  Herbicidal activity in post-emergence, CA: 4 (4=71-90% damage)
Abutilon theofrasti [12]
  Herbicidal activity in post-emergence, AT: 5 (5=91% damage—death of the plant)
Solanum nigrum [13]
  Herbicidal activity in post-emergence, SN: 5 (5=91% damage—death of the plant)
Portulaca oleracea [14]
  Herbicidal activity in post-emergence, PO: 4 (4=71-90% damage)

## Cn1nnc(-c2cc(-n3c(=O)cc(C(F)(F)F)n(C)c3=O)ccc2Cl)n1 [Compound No 13, 3-[4-chloro-3-(2-methyl-2H-tetrazol-5-yl)phenyl]-1-methyl-6-(trifluoromethyl)-2,4(1H,3H)-pyrimidinedione]
other
  melting point: 192 °C
Amaranthus retroflexus [1]
  Herbicidal activity in pre-emergence, AR: 5 (5=91% damage—death of the plant)
Ipomea purpurea [2]
  Herbicidal activity in pre-emergence, IP: 5 (5=91% damage—death of the plant)
Sida spinosa [3]
  Herbicidal activity in pre-emergence, SS: 5 (5=91% damage—death of the plant)
Chenopodium album [4]
  Herbicidal activity in pre-emergence, CA: 5 (5=91% damage—death of the plant)
Abutilon theofrasti [5]
  Herbicidal activity in pre-emergence, AT: 5 (5=91% damage—death of the plant)
Solanum nigrum [6]
  Herbicidal activity in pre-emergence, SN: 5 (5=91% damage—death of the plant)
Galium aparine
  Herbicidal activity in pre-emergence, GA: 5 (5=91% damage—death of the plant)
Portulaca oleracea [7]
  Herbicidal activity in pre-emergence, PO: 5 (5=91% damage—death of the plant)
Amaranthus retroflexus [8]
  Herbicidal activity in post-emergence, AR: 5 (5=91% damage—death of the plant)
Ipomea purpurea [9]
  Herbicidal activity in post-emergence, IP: 5 (5=91% damage—death of the plant)
Sida spinosa [10]
  Herbicidal activity in post-emergence, SS: 5 (5=91% damage—death of the plant)
Chenopodium album [11]
  Herbicidal activity in post-emergence, CA: 5 (5=91% damage—death of the plant)
Abutilon theofrasti [12]
  Herbicidal activity in post-emergence, AT: 5 (5=91% damage—death of the plant)
Solanum nigrum [13]
  Herbicidal activity in post-emergence, SN: 5 (5=91% damage—death of the plant)
Portulaca oleracea [14]
  Herbicidal activity in post-emergence, PO: 5 (5=91% damage—death of the plant)

## Cn1c(C(F)(F)F)cc(=O)n(-c2cc(-c3nc4ccccc4s3)c(Cl)cc2Cl)c1=O [Compound No 123, 3-[5-(1,3-benzothiazol-2-yl)-2,4-dichlorophenyl]-1-methyl-6-(trifluoromethyl)-2,4(1H,3H)-pyrimidinedione]
other
  melting point: 195 °C

## Cc1ccc2nc(-c3cc(-n4c(=O)cc(C(F)(F)F)n(C)c4=O)c(Cl)cc3Cl)oc2c1 [Compound No 124, 3-[2,4-dichloro-5-(6-methyl-1,3-benzoxazol-2-yl)phenyl]-1-methyl-6-(trifluoromethyl) 2,4(1H,3H)-pyrimidinedione]
other
  melting point: 200 °C

## CN(C)C(=O)Cn1nnc(-c2cc(-n3c(=O)cc(C(F)(F)F)n(C)c3=O)ccc2Cl)n1 [Compound No 125, 2-(5-{2-chloro-5-[1,2,3,6-tetrahydro-3-methyl-2,6-dioxo-4-(trifluoromethyl)pyrimidin-1-yl]phenyl}-2H-tetrazol-2-yl)-N,N-dimethylacetamide]
other
  melting point: 208 °C

## Cn1c(C(F)(F)F)cc(=O)n(-c2ccc(Cl)c(-c3nnn(CC(N)=O)n3)c2)c1=O [Compound No 126, 2-(5-{2-chloro-5-[1,2,3,6-tetrahydro-3-methyl-2,6-dioxo-4-(trifluoromethyl)pyrimidin-1-yl]phenyl}-2H-tetrazol-2-yl)acetamide]
other
  melting point: 200 °C

## CC(C)Cc1csc(-c2cc(-n3c(=O)cc(C(F)(F)F)n(C)c3=O)c(Cl)cc2Cl)n1 [Compound No 129, 3-[2,4-dichloro-5-(4-isobutyl-1,3-thiazol-2-yl)phenyl]-1-methyl-6-(trifluoromethyl) 2,4(1H,3H)-pyrimidinedione]
other
  melting point: 167 °C

## CCOC(=O)c1sc(-c2cc(-n3c(=O)cc(C(F)(F)F)n(C)c3=O)ccc2Cl)nc1C [Compound No 131, ethyl 2-{2-chloro-5-[1,2,3,6-tetrahydro-3-methyl-2,6-dioxo-4-(trifluoromethyl)pyrimidin-1-yl]phenyl}-4-methyl-1,3-thiazole-5-carboxylate]
other
  melting point: 200 °C

## Cn1c(C(F)(F)F)cc(=O)n(-c2cc(OCc3cc(C(C)(C)C)no3)c(Cl)cc2F)c1=O [Compound No 132, 3-{5-[(3-tert-butylisoxazol-5-yl)methoxy]-4-chloro-2-fluorophenyl}-1-methyl-6-(trifluoromethyl)-2,4(1H,3H)-pyrimidinedione]
other
  melting point: 142 °C

## CC(C)c1cc(COc2cc(-n3c(=O)cc(C(F)(F)F)n(C)c3=O)c(F)cc2Cl)on1 [Compound No 133, 3-{4-chloro-2-fluoro-5-[(3-isopropylisoxazol-5-yl)methoxy]phenyl}-1-methyl-6-(trifluoromethyl)-2,4(1H,3H)-pyrimidinedione]
other
  melting point: 128 °C

## CC(C)n1nnc(-c2cc(-n3c(=O)cc(C(F)(F)F)n(C)c3=O)ccc2Cl)n1 [Compound No 134, 3-[4-chloro-3-(2-isopropyl-2H-tetrazol-5-yl)phenyl]-1-methyl-6-(trifluoromethyl)-2,4(1H,3H)-pyrimidinedione]
other
  melting point: 147 °C

## CCOC(=O)c1csc(-c2cc(-n3c(=O)cc(C(F)(F)F)n(C)c3=O)ccc2Cl)n1 [Compound No 156, ethyl 2-{2-chloro-5-[1,2,3,6-tetrahydro-3-methyl-2,6-dioxo-4-(trifluoromethyl)pyrimidin-1-yl]phenyl}-1,3-thiazole-4-carboxylate]
other
  melting point: 197 °C

## CCCCn1nnc(-c2cc(-n3c(=O)cc(C(F)(F)F)n(C)c3=O)ccc2Cl)n1 [Compound No 157, 3-[3-(2-butyl-2H-tetrazol-5-yl)-4-chlorophenyl]-1-methyl-6-(trifluoromethyl)-2,4(1H,3H)-pyrimidinedione]
other
  melting point: 108 °C
